Data from patent US5395611A, “Phenolic amine depigmenting and antimelanoma agents” (The Governors of the University of Alberta, priority 1992, dated 1995).
Entries after “also recorded” stand apart in the source; their conditions may differ.

Tests used:
mushroom tyrosinase = assay: Enzyme kinetics for tyrosinase; type: biochemical
Experimental: (§1) Mushroom tyrosinase (400 units/mg) and plasma MAO (1000 units/gm) were obtained from Sigma Chemical Co. (St. Louis, Mo., USA). A reaction mixture consisted of a substrate of 7 to 8 different concentrations (40 to 500 μM for mushroom tyrosinase and 20 to 200 μM for MAO) and of either mushroom tyrosinase (2.5 μg) or MAO (10 μg) in 1.0 mL of 0.05M sodium phosphate buffer, pH 6.8 and 7.4 respectively. The reactions were carried out at 37° C. in a shaking water bath, and stopped by taking 100 μL of the reaction mixture and adding it to 900 μL of 0.4M HCLO4. The disappearance of substrate was followed using HPLC (high pressure liquid chromatography) Km and Vmax values were calculated from the Lineweaver-Burk plots.
^a mushroom tyrosinase; 11 unit/ml of tyrosinase was used. One enzyme
unit will cause an increase in A280 of 0.001 per min at pH 6.8 at
25° C. using Ltyrosine as substrate.

[1] = tested on: plasma monoamine oxidase (MAO); assay: Enzyme kinetics for monoamineoxidase (plasma MAO); type: biochemical
Experimental: as §1

in vivo = settings: mouse, ip
Experimental: 3:1-85 1972. In accordance with this Protocol, ten to fifteen mice were used in each test group. They were weighed and randomized at day one after s.c. inoculation of B16 melanoma cells. From day five, the phenolic melanin precursors were administered i.p. daily for nine days. The test compounds were dissolved in normal saline, and sterilized by heating to 100° C. for 2 minutes. […] They were administered j.p. with the following doses: 400 mg/Kg - 4-S-CAP; 200 to 300 mg/Kg - 4-S-CAP; and 200 to 1200 mg/Kg - N-Ac-4-S-CAP. A catalytic amount of L-dopa, 25 mg/Kg and antidecarboxylase, carbidopa, 400 mg/Kg, were also administered. Carbidopa was given one hour prior to L-dopa administration. DTIC (NSC 4538) was used as a control drug at a dose of 60 mg/Kg. Acute toxicity of 4-S-CP and 4-S-CAP was evaluated from 100 to 1600 mg/Kg.
The B16 mouse melanoma was maintained by s.c. inoculation of tumour cells into the back of C57BL7J mice (5 to 6 weeks, female). […] Briefly, excised tumours were homogenized in normal saline. The homogenized tumour cells were then passed through a sterile 80 mesh stainless steel screen, washed with normal saline, centrifuged (500 g. for 10 minutes) and resuspended in normal saline. Suspensions of viable melanoma cells at the concentration of 1×10^6 per 0.1 ml were inoculated s.c. into both the right and left inguinal areas of C57BL/6J mice (female, 5 to 6 weeks old, 18 to 20 gm).

B16 melanoma = assay: In vivo growth inhibition of s.c. inoculated B16 melanoma; design: species or system mouse; settings: for % Gi (growth inhibition): 200 mg/Kg
Experimental: Briefly, excised tumours were homogenized in normal saline.
The in vivo antimelanoma effect of the compounds were evaluated by percent growth inhibition of inoculated tumour (% g.i.). The percent g.i. was computed from the mean tumour volume at day 12 or 13 of the experiments; i.e., 100× (1- treated group/control group). Tumour volume was calculated by the following formula:
tumour volume=long axis×(short axis)^2 ×1/2.

[2] = Urinary excretion after i.p. injection (metabolic assay); type: in vivo, mice; settings: 5.2 mg/mouse
Experimental: Fifteen mice randomly divided into three groups of five were injected i.p. with a test agent (300 mg/kg) dissolved in N saline solution. Group 1 were injected with 4-S-CAP, group 2 with N-Ac-4-S-CAP, group 3 were controls. The mice are kept in metabolic cages; their urine is collected 3, 8 and 24 hr after injection, and the 4-S-CAP and N-Ac-4-S-CAP content is measured by HPLC in a system consisting of a Waters 600E liquid chromatography, with a Bondapak C18 column (3.0×300 mm; particle size, 10 μm) and a Waters 460 electrochemical detector. Mobile phase: 0.1M potassium phosphate buffer, pH 2.1, containing 0.1 mM Na2 EDTA methanol, 80:20 (v/v); column temperature, 60° C.; flow rate 1.0 ml/min. Urine samples are hydrolysed with 0.1M HCl before assay, and the phenols are detected at 850 mV against an Ag/AgCl reference electrode.

black hair follicles = assay: Depigmentation of new hair (eumelanin/PTCA content); type: in vivo, C57BL/6J black mice
Experimental: Female progeny were used in this testing when approximately 8 weeks old and weighing 17 grams.
Thirty mice were randomized into 6 groups of 5 (1 control and 1 for each compound). Starting on day 1, daily for 14 days the agent was injected i.p. or was infiltrated s.c. in an area where hair follicles had been plucked; the dose was 300 mg/kg body weight.
In the same 30 mice, hair follicles were harvested on day 22 (early telogen phase) and their eumelanin content analyzed. […] Briefly, a 10-mg hair sample is homogenized in water at a concentration of 10 mg/ml; the 200-μl homogenate is transferred to a screw-capped test tube, mixed with 1M H2 SO4 (800 μL) and oxidized with 3% KMnO4. The product, pyrrole-2,3,5-tricarboxylic acid (PTCA), is analyzed by HPLC with a UVL detector; samples are measured in duplicate. The eumelanin content is expressed as PTCA (ng/mg) against the PCTA content of BALB/c albino mice as control (≤10 ng/mg, the background value with our method, in which 1 ng corresponds roughly to a eumelanin content of 50 ng), and the degree of depigmentation is expressed as a percentage: (PTCA content of control sample minus PTCA content of experimental sample)/(PCTA content of control sample)×100.

melanocytes = assay: Light and electron microscopy of follicular melanocytes; type: in vivo, mice; settings: i.p.
Experimental: In […] of 4 mice (1 control and 1 for each compound) were treated daily with the control or compound injected i.p. The compounds tested were 4-S-CAP, N-Ac-4-S-CAP and α-Me-4-S-CAP. Samples of skin and regrowing hair follicles were excised under brief general anaesthesia on day 10 (late anagen phase), fixed in Karnovsky's solution (2.5% glutaraldehyde and 2.5% paraformaldehyde in 011M cacodylate buffer), and refixed in 1% osmium tetroxide in cadodylate buffer. Tissues were stained en bloc with 1.5% uranyl acetate in o.1M veronal buffer for 30 min, dehydrated in graded ethanol solutions, embedded in epoxy resin, and sectioned with a Potter-Blum ultramicrotome MT II. Sections 1.0 μm thick were stained with methylene blue for light microscopy, thin sections were stained with led citrate for electron microscopy.

[3] = tested on: plasma monoamine oxidase (MAO); settings: in words, prior knowledge; cited from earlier work
melanoma = settings: in words; cited from earlier work
black guinea pig skin = settings: topical application, cited from earlier work
follicular melanocytes = settings: in words; cited from earlier work
[4] = in words; cited from earlier work
[5] = acute toxicity, evaluated 100 to 1600 mg/Kg (Miura et al); cited from earlier work
[6] = s.c., 300 mg/kg daily for 14 days, hair day 22

## NCCSc1ccc(O)cc1 [4-S-CAP, 4-S-cysteaminylphenol, reference compound]
Mushroom tyrosinase; in words
  Substrate for tyrosinase: substrate for both plasma MAO and tyrosinase
Mushroom tyrosinase; mushroom tyrosinase, pH 6.8, 37° C.
  Km: 117 µM
[1]; in words
  Substrate for plasma MAO: substrate for both plasma MAO and tyrosinase
[1]; plasma MAO, pH 7.4, 37° C.
  Km: 52.6 µM
In vivo
  MTD: 200 to 300 mg/kg
B16 melanoma; Experiment I
  % Gi (growth inhibition): 54.0%
B16 melanoma; Experiment II
  % Gi (growth inhibition): 25.1%
B16 melanoma; in words
  Growth inhibition of B16 melanoma: greater anti-melanoma effect at 200 mg/Kg than N-Ac-4-S-CAP
[2]; 3 h after i.p. injection
  Urinary excretion of unchanged compound, amount: 0.399 ± 0.018 mg
[2]; 8 h after i.p. injection
  Urinary excretion of unchanged compound, amount: 0.443 ± 0.023 mg
[2]; 24 h after i.p. injection
  Urinary excretion of unchanged compound, amount: 0.458 ± 0.021 mg
[2]; urine, ip, 300 mg/kg, 3 h after i.p. injection, read-out: Urinary excretion of unchanged compound, % of dose
  dose excreted at 3 h: 7.7%
[2]; urine, ip, 300 mg/kg, 8 h after i.p. injection, read-out: Urinary excretion of unchanged compound, % of dose
  dose excreted at 8 h: 8.5%
[2]; urine, ip, 300 mg/kg, 24 h after i.p. injection, read-out: Urinary excretion of unchanged compound, % of dose
  dose excreted at 24 h: 8.8%
Black hair follicles; i.p., 300 mg/kg daily for 14 days, hair day 22
  Depigmentation: 87%
Black hair follicles; in words
  Depigmentation of new growth of black hair follicles: i.p. administration induced more depigmentation than s.c.
Black hair follicles; [6]
  Depigmentation: 47%
  PTCA Content: 458.3 ± 107.6 ng/mg
melanocytes; 10 days
  Electron microscopy of melanocytes/melanosomes: contained immature melanosomes at stages II and III
melanocytes; day 10
  Light microscopy of hair follicles: the hair follicles contained functioning melanocytes and melanin pigments transferred into keratonocytes, although they were much sparser than in the controls
[3]
  Substrate for plasma MAO (converted into aldehyde form): substrate for monoamineoxidase (MAO); also recorded: substrate not only for tyrosinase, but also for plasma monoamineoxidase (MAO)
melanoma
  Inhibition of melanoma growth: exhibited inhibition of melanoma growth
  Prolonging lifespan of melanoma-bearing mice: potent agent in prolonging the lifespan of melanoma-bearing mice
Black guinea pig skin; guinea pigs
  Inflammatory changes of the skin: inflammatory changes of the skin of the guinea pigs was prominent
Black guinea pig skin
  Depigmentation of black guinea pig skin: demonstrated depigmenting properties
Follicular melanocytes
  Effect on albino follicles: no effect on the albino follicles
  Effect on black hair follicles / black hair: demonstrated cytotoxicity in the depigmentation of black hair follicles; also recorded: depigmentation of black hair as manifested by loss of functioning melanocytes
[4]
  Hypotensive effect: hypotensive
[5]
  Lethal dose: 400 mg/kg
